According to US6274715A, “Tricyclic erythromycin derivatives” (priority 1997, dated 2001):
Values after ≈ are worked out from the molar mass of the structure shown.

Key:
Assay type in all cases: cell-based
[1] = test system: STAPHYLOCOCCUS AUREUS ATCC 6538P; assay: In vitro antibacterial activity, MIC, BHI agar dilution; settings: S. aureus ATCC 6538P, 35-37° C., 20 to 24 hours, unit assumed
[2] = test system: STAPHYLOCOCCUS AUREUS A5177; assay: as above; settings: S. aureus A5177, unit assumed
[3] = test system: STAPHYLOCOCCUS AUREUS A-5278; assay: as above; settings: S. aureus A-5278, unit assumed
[4] = test system: STAPHYLOCOCCUS AUREUS CMX 642A; assay: as above; settings: S. aureus CMX 642A, unit assumed
[5] = test system: STAPHYLOCOCCUS AUREUS NCTC10649M; assay: as above; settings: S. aureus NCTC10649M, unit assumed
[6] = test system: STAPHYLOCOCCUS AUREUS CMX 553; assay: as above; settings: S. aureus CMX 553, unit assumed
[7] = test system: STAPHYLOCOCCUS AUREUS 1775; assay: as above; settings: S. aureus 1775, unit assumed
[8] = test system: STAPHYLOCOCCUS EPIDERMIDIS 3519; settings: S. epidermidis 3519; BHI agar; unit assumed
EN[…] ATCC 8043 = assay: In vitro antibacterial activity, MIC, BHI agar dilution; settings: E. faecium ATCC 8043, unit assumed
Summary of the method: (§1)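 Twelve successive aqueous dilutions of compound in Brain Heart Infusion agar were inoculated with 1:100 culture dilutions (1:10 for slow growers such as Micrococcus, Streptococcus) by Steers replicator and incubated at 35-37° C for 20 to 24 hours. MIC was the lowest concentration giving no growth, slight haze or sparse colonies versus drug-free control.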

M[…] ATCC 4698 = assay: as above; settings: M. luteus ATCC 4698, unit assumed
Summary of the method: as §1

M[…] ATCC 9341 = assay: as above; settings: M. luteus ATCC 9341, unit assumed
Summary of the method: as §1

STR[…] 508 = assay: as above; settings: S. agalactiae CMX 508, unit assumed
Summary of the method: as §1

[9] = test system: STREPTOCOCCUS BOVIS A-5169; assay: as above; settings: S. bovis A-5169, unit assumed
[10] = test system: STREPTOCOCCUS PYOGENES EES61; assay: as above; settings: S. pyogenes EES61, unit assumed
[11] = test system: STREPTOCOCCUS PYOGENES 930; assay: as above; settings: S. pyogenes 930, unit assumed
[12] = test system: STREPTOCOCCUS PYOGENES PIU 2548; assay: as above; settings: S. pyogenes PIU 2548, unit assumed
ESCHERICHIA COLI JUHL = settings: E. coli JUHL; BHI agar; unit assumed
ESCHERICHIA COLI SS = assay: In vitro antibacterial activity, MIC, BHI agar dilution; settings: E. coli SS, unit assumed
ESCHERICHIA COLI DC-2 = assay: as above; settings: E. coli DC-2, unit assumed
ESCHERICHIA COLI H560 = assay: as above; settings: E. coli H560, unit assumed
ESCHERICHIA COLI KNK 437 = settings: E. coli KNK 437; BHI agar; unit assumed
[13] = test system: ENTEROBACTER AEROGENES ATCC 13048; assay: In vitro antibacterial activity, MIC, BHI agar dilution; settings: E. aerogenes ATCC 13048, unit assumed
[14] = test system: KLEBSIELLA PNEUMONIAE ATCC 8045; assay: as above; settings: K. pneumoniae ATCC 8045, unit assumed
[15] = test system: PROVIDENCIA STUARTII CMX 640; settings: P. stuartii CMX 640; BHI agar; unit assumed
[16] = test system: PSEUDOMONAS AERUGINOSA BMH10; assay: In vitro antibacterial activity, MIC, BHI agar dilution; settings: P. aeruginosa BMH10, unit assumed
[17] = test system: PSEUDOMONAS AERUGINOSA 5007; assay: as above; settings: P. aeruginosa 5007, unit assumed
[18] = test system: PSEUDOMONAS AERUGINOSA K799/WT; assay: as above; settings: P. aeruginosa K799/WT, unit assumed
[19] = test system: PSEUDOMONAS AERUGINOSA K799/61; assay: as above; settings: P. aeruginosa K799/61, unit assumed
PSEUDOMONAS CEPACIA 296I = assay: as above; settings: P. cepacia 296I, unit assumed
[20] = test system: PSEUDOMONAS AERUGINOSA DPHD-5263; assay: as above; settings: P. aeruginosa DPHD-5263, unit assumed
[21] = test system: PSEUDOMONAS AERUGINOSA DPHD-2862; assay: as above; settings: P. aeruginosa DPHD-2862, unit assumed
CANDIDA ALBICANS CCH 442 = assay: as above; settings: C. albicans CCH 442, unit assumed
[22] = test system: MYCOBACTERIUM SMEGMATIS ATCC 114; assay: as above; settings: M. smegmatis ATCC 114, unit assumed

Row | SMILES | MIC [1] | MIC [2] | MIC [3] | MIC [4] | MIC [5] | MIC [6] | MIC [7] | MIC [8] | MIC (EN[…] ATCC 8043) | MIC (M[…] ATCC 4698) | MIC (M[…] ATCC 9341) | MIC (STR[…] 508) | MIC [9] | MIC [10] | MIC [11] | MIC [12] | MIC (ESCHERICHIA COLI JUHL) | MIC (ESCHERICHIA COLI SS) | MIC (ESCHERICHIA COLI DC-2) | MIC (ESCHERICHIA COLI H560) | also measured
1 | CCC1OC(=O)C(C)C(=O)C(C)C(OC2OC(C)CC(N(C)C)C2O)C(C)(OC)CC(C)C2=NCC(COCc3ccccc3F)N3C(=O)OC1(C)C3C2C (stereo not drawn) [Example 73] | 0.1 µg/mL (≈ 0.129 µM) | 0.1 µg/mL (≈ 0.129 µM) | > 100 µg/mL | 0.1 µg/mL (≈ 0.129 µM) | 0.1 µg/mL (≈ 0.129 µM) | 0.1 µg/mL (≈ 0.129 µM) | > 100 µg/mL | 0.1 µg/mL (≈ 0.129 µM) | 0.05 µg/mL (≈ 0.0644 µM) | 0.1 µg/mL (≈ 0.129 µM) | 0.01 µg/mL (≈ 0.0129 µM) | ≤ 0.005 µg/mL | 0.01 µg/mL (≈ 0.0129 µM) | ≤ 0.005 µg/mL | 100 µg/mL (≈ 129 µM) | 0.39 µg/mL (≈ 0.503 µM) | 50 µg/mL (≈ 64.4 µM) | 0.2 µg/mL (≈ 0.258 µM) | 25 µg/mL (≈ 32.2 µM) | 12.5 µg/mL (≈ 16.1 µM) | MIC (ESCHERICHIA COLI KNK 437): 50 µg/mL (≈ 64.4 µM); MIC [13]: 100 µg/mL (≈ 129 µM); MIC [14]: 100 µg/mL (≈ 129 µM); MIC [15]: > 100 µg/mL; MIC [16]: 100 µg/mL (≈ 129 µM); MIC [17]: > 100 µg/mL; MIC [18]: > 100 µg/mL; MIC [19]: 0.39 µg/mL (≈ 0.503 µM); MIC (PSEUDOMONAS CEPACIA 296I): 25 µg/mL (≈ 32.2 µM); MIC [20]: 100 µg/mL (≈ 129 µM); MIC [21]: 100 µg/mL (≈ 129 µM); MIC (CANDIDA ALBICANS CCH 442): > 100 µg/mL; MIC [22]: 0.39 µg/mL (≈ 0.503 µM)
2 | CC[C@H]1OC(=O)[C@H](C)C(=O)[C@H](C)[C@@H](O[C@@H]2O[C@H](C)C[C@H](N(C)C)[C@H]2O)[C@](C)(OC)C[C@@H](C)C2=NCC(COC(=O)c3cccc4[nH]ccc34)N3C(=O)O[C@@]1(C)[C@H]3[C@H]2C (stereo partly drawn) [Example 144] | 0.1 µg/mL (≈ 0.123 µM) | 0.1 µg/mL (≈ 0.123 µM) | > 100 µg/mL | 0.1 µg/mL (≈ 0.123 µM) | 0.1 µg/mL (≈ 0.123 µM) | 0.1 µg/mL (≈ 0.123 µM) | > 100 µg/mL | 0.1 µg/mL (≈ 0.123 µM) | 0.1 µg/mL (≈ 0.123 µM) | 0.1 µg/mL (≈ 0.123 µM) | 0.01 µg/mL (≈ 0.0123 µM) | ≤ 0.005 µg/mL | ≤ 0.005 µg/mL | ≤ 0.005 µg/mL | 100 µg/mL (≈ 123 µM) | 0.39 µg/mL (≈ 0.481 µM) | 50 µg/mL (≈ 61.7 µM) | 0.78 µg/mL (≈ 0.962 µM) | 50 µg/mL (≈ 61.7 µM) | 50 µg/mL (≈ 61.7 µM) | MIC (ESCHERICHIA COLI KNK 437): 50 µg/mL (≈ 61.7 µM); MIC [13]: 100 µg/mL (≈ 123 µM); MIC [14]: 100 µg/mL (≈ 123 µM); MIC [15]: > 100 µg/mL; MIC [16]: > 100 µg/mL; MIC [17]: > 100 µg/mL; MIC [18]: > 100 µg/mL; MIC [19]: 0.78 µg/mL (≈ 0.962 µM); MIC (PSEUDOMONAS CEPACIA 296I): 50 µg/mL (≈ 61.7 µM); MIC [20]: > 100 µg/mL; MIC [21]: > 100 µg/mL; MIC (CANDIDA ALBICANS CCH 442): > 100 µg/mL; MIC [22]: 1.56 µg/mL (≈ 1.92 µM)
3 | CCC1OC(=O)C(C)C(=O)C(C)C(OC2OC(C)CC(N(C)C)C2O)C(C)(OC)CC(C)C2=NCC(C)(CN(C)Cc3ccccc3)N3C(=O)OC1(C)C3C2C (stereo not drawn) [Example 134] | 0.78 µg/mL (≈ 0.994 µM) | 0.78 µg/mL (≈ 0.994 µM) | > 100 µg/mL | 0.78 µg/mL (≈ 0.994 µM) | 0.78 µg/mL (≈ 0.994 µM) | 0.78 µg/mL (≈ 0.994 µM) | > 100 µg/mL | 0.78 µg/mL (≈ 0.994 µM) | 0.1 µg/mL (≈ 0.127 µM) | 0.78 µg/mL (≈ 0.994 µM) | 0.05 µg/mL (≈ 0.0637 µM) | 0.02 µg/mL (≈ 0.0255 µM) | 0.01 µg/mL (≈ 0.0127 µM) | 0.02 µg/mL (≈ 0.0255 µM) | > 100 µg/mL | 0.78 µg/mL (≈ 0.994 µM) | 100 µg/mL (≈ 127 µM) | 1.56 µg/mL (≈ 1.99 µM) | 100 µg/mL (≈ 127 µM) | 50 µg/mL (≈ 63.7 µM) | MIC (ESCHERICHIA COLI KNK 437): > 100 µg/mL; MIC [13]: > 100 µg/mL; MIC [14]: > 100 µg/mL; MIC [15]: > 100 µg/mL; MIC [16]: > 100 µg/mL; MIC [17]: > 100 µg/mL; MIC [18]: > 100 µg/mL; MIC [19]: 1.56 µg/mL (≈ 1.99 µM); MIC (PSEUDOMONAS CEPACIA 296I): > 100 µg/mL; MIC [20]: > 100 µg/mL; MIC [21]: > 100 µg/mL; MIC (CANDIDA ALBICANS CCH 442): > 100 µg/mL; MIC [22]: 0.78 µg/mL (≈ 0.994 µM)
